ChEMBL document CHEMBL2169784, “Discovery and development of spleen tyrosine kinase (SYK) inhibitors” (J Med Chem, 2012)

Legend:
[1] = Half life in rat at 10 mg/kg, po administered as single dose; assay type: ADME, organism-based; set-up: dose 10 mg/kg, route oral; settings: in vivo
[2] = Cmax in rat at 10 mg/kg, po after 2 hrs administered as single dose; assay type: ADME, organism-based; set-up: dose 10 mg/kg, route oral; settings: in vivo

## COc1ccc(-c2cc3nccn3c(Nc3ncccc3C(N)=O)n2)cc1OC
[1]
  half-life: 1.78 h
[2]
  Cmax: 167 ng/mL
